# Assays:
# [1] = test system: human tumor cell types such as breast, prostate, and melanoma; details: xenografted murine models; cited from earlier work
# [2] = test system: human cervical epithelium HeLa tumor cells; experiment: Antiproliferation assay (WST-1 cell viability); assay type: cell-based; details: 24 h incubation, conjugates added at a peptide concentration of 1×10^−5 M
# Description: The degree of cytotoxic activity of single peptides (P1 and P2), single gold nanoparticle solutions (AuNP-20 and AuNP-40) and their respective conjugates was determined by cell viability testing using the WST-1 assay in human cervical epithelium HeLa tumor cells, following 24 h of incubation. Each assay was run in sextuplicate, and the whole experiment was run in triplicate.
# HeLa cell line (ATTC no CCL-2) was maintained in Dulbecco Modified Eagle's Minimal Essential Medium (DMEM) low glucose medium (Biological Industries) containing 10% foetal calf serum (FCS), 2 mM glutamine, 50 U/mL penicillin, and […] streptomycin at 37° C. in a controlled 5% CO2 atmosphere.
# For cell viability experiments, exponentially growing HeLa cells were detached from the culture flasks using a trypsin-0.25% ethylenediaminetetraacetic acid (EDTA) solution and the cell suspension was seeded at a concentration of 3.5×10^3 cells/cm^2 onto glass coverslips (Nalge Nunc International, Rochester, N.Y.). WST 1 assays were carried out 24 h later, when the confluence was approximately 70-80%. Non-adherent cells were washed away and attached cells were incubated at 37° C. in 5% CO2 in DMEM with a known concentration of gold nanoparticles.
# For each assay, 3.5×10^3 cells/cm^2 were seeded onto a 96-well plate (Nalge Nunc) and cultured for 24 h. […]
# [3] = test system: non-small cell lung (A549); details: cited from earlier work
# [4] = test system: colon (HT-29); details: cited from earlier work
# [5] = test system: mouse leukemia (P388); details: cited from earlier work
smiles,measurement,setting,value
C/C=C1\NC(=O)[C@H](Cc2ccccc2)NC(=O)[C@@H](C(C)C)NC(=O)[C@@H]([C@@H](C)CC)NC(=O)[C@H](NC(=O)[C@H](NC(=O)[C@H](CCCN)NC(=O)[C@H]2CCCN2C(=O)[C@H](NC(=O)[C@@H](NC(=O)[C@@H](NC(=O)[C@H](NC(=O)CC[C@@H](C)CC)C(C)C)[C@@H](C)O)C(C)C)C(C)C)[C@@H](C)CC)[C@@H](C)OC(=O)[C@H](C(C)C)NC1=O [PMO2734],in vivo activity,[1],significant in vivo activity
C/C=C1\NC(=O)[C@H](Cc2ccccc2)NC(=O)[C@@H](C(C)C)NC(=O)[C@@H]([C@@H](C)CC)NC(=O)[C@H](NC(=O)[C@H](NC(=O)[C@H](CCCN)NC(=O)[C@H]2CCCN2C(=O)[C@H](NC(=O)[C@@H](NC(=O)[C@@H](NC(=O)[C@H](CS)NC(=O)CCCC(C)C)[C@@H](C)O)C(C)C)C(C)C)[C@@H](C)CC)[C@@H](C)OC(=O)[C@H](C(C)C)NC1=O [P2],inhibition (cytotoxicity against HeLa cells),[2],10%
C/C=C1\NC(=O)[C@H](Cc2ccccc2)NC(=O)[C@@H](C(C)C)NC(=O)[C@@H]([C@@H](C)CC)NC(=O)[C@H](NC(=O)[C@H](NC(=O)[C@H](CCCN)NC(=O)[C@H]2CCCN2C(=O)[C@H](NC(=O)[C@@H](NC(=O)[C@@H](NC(=O)[C@@H](CS)NC(=O)CCCC(C)C)[C@@H](C)O)C(C)C)C(C)C)[C@@H](C)CC)[C@@H](C)OC(=O)[C@H](C(C)C)NC1=O [P1],inhibition (cytotoxicity against HeLa cells),[2],50%
C/C=C1\NC(=O)[C@H](Cc2ccccc2)NC(=O)[C@@H](C(C)C)NC(=O)[C@@H]([C@@H](C)CC)NC(=O)[C@H](NC(=O)[C@H](NC(=O)[C@H](CCCN)NC(=O)[C@H]2CCCN2C(=O)[C@H](NC(=O)[C@@H](NC(=O)[C@@H](NC(=O)[C@H](NC(=O)CCCC(C)C)C(C)C)[C@@H](C)O)C(C)C)C(C)C)[C@@H](C)CC)[C@@H](C)OC(=O)[C@H](C(C)C)NC1=O [Kahalalide F],in vitro activity,[3],micromolar activity
same,in vitro activity,[4],micromolar activity
same,in vitro activity,[5],micromolar activity

# Source: patent US20100323021A1, “ANTITUMORAL TREATMENTS” (PHARMA MAR, S.A., priority 2008, published 2010)
